# Results as given in patent US12180255B2, “Compositions and methods for derepressing RE1 silencing transcription factor target genes” (Alcamena Stem Cell Therapeutics, LLC, priority 2019, dated 2024).
# “And” between values parts separate entries of the source, which are not always exact repeats. Equal values may be shown once. Where a SMILES comes first, the peptide text is derived from it. [ ]: non-standard residue; d: D form. Gly(Dodecyl) = CCCCCCCCCCCC[C@H](N)C(=O)O
# Assays:
# PPA1 = molecular target: T1, PPA1 (Homo sapiens, UniProt Q15181); experiment: Off target phosphatase activity on phosphorylated REST peptide; assay type: biochemical; settings: 10000 nM RPP
# T1 sequence (Q15181 2-289 limits assumed): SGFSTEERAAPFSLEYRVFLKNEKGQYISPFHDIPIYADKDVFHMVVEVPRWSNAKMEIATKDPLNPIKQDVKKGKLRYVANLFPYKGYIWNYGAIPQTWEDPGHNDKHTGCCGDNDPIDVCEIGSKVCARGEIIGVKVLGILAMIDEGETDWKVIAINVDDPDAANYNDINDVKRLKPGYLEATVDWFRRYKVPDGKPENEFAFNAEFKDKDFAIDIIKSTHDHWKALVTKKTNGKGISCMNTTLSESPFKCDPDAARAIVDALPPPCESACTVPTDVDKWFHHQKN
# PPP1CA = PPP1CA (Homo sapiens, UniProt P62136); experiment: as above; assay type: biochemical; settings: 10000 nM RPP
# Sequence of PPP1CA (P62136 whole entry, species assumed): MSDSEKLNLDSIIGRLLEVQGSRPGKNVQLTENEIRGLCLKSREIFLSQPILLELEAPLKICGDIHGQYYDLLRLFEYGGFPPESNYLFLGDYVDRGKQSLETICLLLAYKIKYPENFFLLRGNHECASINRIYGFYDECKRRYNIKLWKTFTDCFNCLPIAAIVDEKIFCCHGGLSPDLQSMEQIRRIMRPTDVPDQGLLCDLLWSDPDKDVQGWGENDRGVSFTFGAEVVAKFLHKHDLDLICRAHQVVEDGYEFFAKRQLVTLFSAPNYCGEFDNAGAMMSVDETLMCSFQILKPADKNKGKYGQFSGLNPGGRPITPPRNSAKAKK
# PP5CA = molecular target: T2, PP5CA (Homo sapiens, UniProt P53041); experiment: as above; assay type: biochemical; settings: 10000 nM RPP
# T2 sequence (P53041 1-499): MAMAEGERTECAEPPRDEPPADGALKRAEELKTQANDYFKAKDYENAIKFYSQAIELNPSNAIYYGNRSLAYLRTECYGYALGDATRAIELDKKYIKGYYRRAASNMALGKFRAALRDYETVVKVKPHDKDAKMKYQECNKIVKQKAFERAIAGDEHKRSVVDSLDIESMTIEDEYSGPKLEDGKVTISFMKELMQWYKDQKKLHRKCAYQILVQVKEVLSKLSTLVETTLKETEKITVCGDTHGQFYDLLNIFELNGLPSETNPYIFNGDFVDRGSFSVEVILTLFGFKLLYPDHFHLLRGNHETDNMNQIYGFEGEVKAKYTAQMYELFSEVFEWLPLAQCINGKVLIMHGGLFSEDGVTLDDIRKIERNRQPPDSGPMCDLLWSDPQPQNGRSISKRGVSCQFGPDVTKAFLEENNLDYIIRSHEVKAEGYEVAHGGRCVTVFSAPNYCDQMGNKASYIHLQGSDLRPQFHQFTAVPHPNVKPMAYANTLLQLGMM
# L5 DRGs = experiment: qRT-PCR mRNA expression in ex vivo cultured L5 DRGs; assay type: cell-based, Sprague Dawley rat; settings: for Increase, BDNF mRNA / Increase, KV4.3 mRNA / Increase, KV7.2 mRNA / Increase, NGF mRNA / Increase, Nav1.8 mRNA / Increase, OPRM1 mRNA: DRG
# Method: FIG. 15. […] Error bars =standard error of the mean.
# L5 DRGs were dissected from adult male rats and plated in 12-well plates pre-coated with poly-D-Lysine (PDL) and laminin in a minimal volume of medium (250 ul Neurobasal™-A medium (GIBCO) supplemented with B27 (GIBCO), 50 ng/ml NGF (Sigma-Aldrich) and penicillin streptomycin) to allow attachment to the culture plate. One day after plating, DRGs were incubated with RPP (SEQ. ID NO: 12: 1 μM, 3 μM or 10 μM in culture medium, FIGS. 14 and 16; SEQ ID NOS: 13 and 14: 3 μM, FIG. 15) for 48 h. For RNA expression analysis, DRGs were lysed in 300 μl of Qiazol in a 1.5 ml tube containing Bullet Blender Pink Beads using a Bullet Blender Tissue Homogenizer (NextAdvance). Total RNA was extracted using RNeasy Midi Kit (Qiagen) according to manufacturer's instructions. Purified RNA was quantified with NanoDrop 2000 (ThermoFIsher), and reverse transcription was run using High Capacity cDNA Reverse Transcription Kit (Applied Biosystems) and 2 ng/ul RNA per reaction. For qRT-PCR, 5 ul of cDNA (corresponding to 10 ng of RNA) were mixed with to 10 ul SsoAdvanced™ Universal SYBR® Green Supermix (BioRad) and 1 ul of each primer (final primer concentration 500 nM each). Reactions were run in triplicates in a QuantStudio™ 7 Flex Real-Time PCR system (Applied Biosystems). Amplification data were analyzed using the comparative cycle threshold (ΔΔCt) method and β-actin as calibrator. Primers were as follows: β-actin: F-[…] (SEQ ID NO: 340), R-[…] (SEQ ID NO: 333); KV4.3: F-[…] (SEQ ID NO: 341), R-[…] (SEQ ID NO: 342); KV7.2 F-[…] AG (SEQ ID NO: 343), R-[…] (SEQ ID NO: 344); OPRM1: F-[…] (SEQ ID NO: 345), R-[…] (SEQ ID NO: 346).
# CTDSP1 = molecular target: T3, CTDSP1 (Homo sapiens, UniProt Q9GZU7); experiment: In vitro CTDSP1 phosphatase activity on phosphorylated REST peptide; assay type: biochemical; settings: relative to water control
# T3 construct: GSGS linker + His6 (C)
# T3 sequence (Q9GZU7 with tags, fused parts or gaps): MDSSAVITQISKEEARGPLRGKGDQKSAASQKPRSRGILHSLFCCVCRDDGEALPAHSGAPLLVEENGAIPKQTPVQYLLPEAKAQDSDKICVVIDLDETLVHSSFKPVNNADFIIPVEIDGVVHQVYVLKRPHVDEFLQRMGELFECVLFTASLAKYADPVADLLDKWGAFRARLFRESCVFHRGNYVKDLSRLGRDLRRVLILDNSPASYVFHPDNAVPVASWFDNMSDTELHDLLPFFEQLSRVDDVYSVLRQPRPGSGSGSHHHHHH
# [1] = various concentrations, 48 h, relative to water control
# [2] = whole DRG ex vivo, 3 μM, 48 hours
# [3] = whole DRG ex vivo, 10 μM, 48 hours
smiles,measurement,setting,value
CCCCCCCCCCCC[C@@H]1NC(=O)[C@@H](CCCNC(=N)N)NC(=O)[C@@H](CCCNC(=N)N)NC(=O)[C@@H](Cc2c[nH]c3ccccc23)NC(=O)[C@@H](Cc2c[nH]c3ccccc23)NC(=O)[C@@H](CCCNC(=N)N)NC(=O)[C@@H](CCC(=O)O)NC(=O)[C@@H](CC(=O)O)NC(=O)[C@@H](CC(C)C)NC(=O)[C@@H](CCC(=O)O)NC(=O)[C@H]2CCCN2C(=O)[C@H]2CCCN2C(=O)[C@@H](CCC(=O)O)NC(=O)[C@H]2CCCN2C(=O)[C@H]2CCCN2C(=O)[C@@H](CC(C)C)NC(=O)[C@H]2CCCN2C(=O)[C@@H](CCCCN)NC(=O)[C@@H](CCCNC(=N)N)NC(=O)[C@@H](CCCNC(=N)N)NC(=O)[C@@H](CCCNC(=N)N)NC(=O)[C@@H](CCCNC(=N)N)NC(=O)[C@@H](CCCNC(=N)N)NC1=O [SEQ ID NO: 12] (cyclo([dR][dW][dW][dR][dR][Gly(Dodecyl)][dR][dR][dR][dR][dR][dK][dP][dL][dP][dP][dE][dP][dP][dE][dL][dD][dE])),% Activity (Average N = 5),PPA1,101.125%
same,% Activity (Average N = 5),PPP1CA,101.136%
same,% Activity (Average N = 5),PP5CA,97.902%
same,"Increase, BDNF mRNA","L5 DRGs; 0.3 μM, 48 h",1.4x
same,"Increase, BDNF mRNA","L5 DRGs; 1 μM, 48 h",1.3x
same,"Increase, KV4.3 mRNA","L5 DRGs; 1 μM, 48 h",0x
same,"Increase, KV7.2 mRNA","L5 DRGs; 1 μM, 48 h",0 x
same,"Increase, NGF mRNA","L5 DRGs; 1 μM, 48 h",No affect was observed
same,"Increase, Nav1.8 mRNA","L5 DRGs; 1 μM, 48 h",0.8x
same,"Increase, OPRM1 mRNA","L5 DRGs; 1 μM, 48 h",1.2x
same,"Increase, NGF mRNA","L5 DRGs; 1 μM, 48 h, listed as 12",0.9x
same,"Increase, BDNF mRNA","L5 DRGs; 3 μM, 48 h",1.3x
same,"Increase, KV4.3 mRNA","L5 DRGs; 3 μM, 48 h",0x
same,"Increase, KV7.2 mRNA","L5 DRGs; 3 μM, 48 h",6.7x
same,"Increase, NGF mRNA","L5 DRGs; 3 μM, 48 h",1.25 x
same,"Increase, Nav1.8 mRNA","L5 DRGs; 3 μM, 48 h",2.6x
same,"Increase, OPRM1 mRNA","L5 DRGs; 3 μM, 48 h",3x
same,"Increase, BDNF mRNA","L5 DRGs; 10 μM, 48 h",1.7 x
same,"Increase, KV4.3 mRNA","L5 DRGs; 10 μM, 48 h",1.9x
same,"Increase, KV7.2 mRNA","L5 DRGs; 10 μM, 48 h",7.5x
same,"Increase, NGF mRNA","L5 DRGs; 10 μM, 48 h",1.9 x
same,"Increase, Nav1.8 mRNA","L5 DRGs; 10 μM, 48 h",4x
same,"Increase, OPRM1 mRNA","L5 DRGs; 10 μM, 48 h",3.9x
same,mRNA expression of BDNF and NGF (in words),L5 DRGs; [1],increases expression of BDNF and NGF
same,"mRNA expression of KV4.3, KV7.2, Nav1.8 and OPRM1 (in words)",L5 DRGs; [1],"increases expression of KV4.3, KV7.2, Nav1.8 and OPRM1"
same,increase of NGF,"L5 DRGs; whole DRG ex vivo, 3 μM",approximately 50%
same,induction of KV4.3 compared to control,L5 DRGs; [2],approximately 0 times
same,induction of Nav1.8 compared to control,L5 DRGs; [2],2.9 times and ~3 times
same,increase of BDNF expression,"L5 DRGs; whole DRG ex vivo, 10 μM",~75%
same,increase of NGF,"L5 DRGs; whole DRG ex vivo, 10 μM",~2 times
same,induction of KV7.2 compared to control,L5 DRGs; [3],9 times and ~7 times
same,induction of Nav1.8 compared to control,L5 DRGs; [3],4.8 times and ~5 times
same,increase of BDNF expression,"L5 DRGs; whole DRG ex vivo, 0.3, 1, and 3 μM",approximately 25%
same,% Activity (Average N = 5),CTDSP1; 10 nM RPP,89.97%
same,% Activity (Average N = 5),CTDSP1; 20 nM RPP,48.7%
same,% Activity (Average N = 5),CTDSP1; 40 nM RPP,34.46%
same,% Activity (Average N = 5),CTDSP1; 60 nM RPP,31.17%
same,% Activity (Average N = 5),CTDSP1; 80 nM RPP,22.67%
same,% Activity (Average N = 5),CTDSP1; 100 nM RPP,13.72%
